Measurements as given in the supplement of paper PMC10307832.

Key:
Assay in all cases: relative viability (nuclei count vs DMSO), 5 days (fraction); higher = more cells survive
Vemurafenib + Phenformin = compound: CCCS(=O)(=O)Nc1ccc(F)c(C(=O)c2c[nH]c3ncc(-c4ccc(Cl)cc4)cc23)c1F [Vemurafenib] + N=C(N)NC(=N)NCCc1ccccc1 [Phenformin] (partner 250 µM)
In short: (§1)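 Values are medians from duplicate plates. Each reflects relative viability, defined as the nuclei count of treated wells over that of vehicle wells. Lung cancer cell lines in 1536-well plates were pin-tool dosed one day after seeding with one drug alone or with a fixed anchor-drug dose plus five library-drug doses (not always all listed) in √10 steps, then fixed, stained and imaged at 4× after 5 days.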

Vemurafenib + Pemetrexed = compound: CCCS(=O)(=O)Nc1ccc(F)c(C(=O)c2c[nH]c3ncc(-c4ccc(Cl)cc4)cc23)c1F [Vemurafenib] + Nc1nc2[nH]cc(CCc3ccc(C(=O)N[C@@H](CCC(=O)O)C(=O)O)cc3)c2c(=O)[nH]1 [Pemetrexed] (partner 0.2 µM)
In short: as §1

Vemurafenib + Tozasertib = compound: CCCS(=O)(=O)Nc1ccc(F)c(C(=O)c2c[nH]c3ncc(-c4ccc(Cl)cc4)cc23)c1F [Vemurafenib] + Cc1cc(Nc2cc(N3CCN(C)CC3)nc(Sc3ccc(NC(=O)C4CC4)cc3)n2)n[nH]1 [Tozasertib] (partner 0.1 µM)
In short: as §1

OSI-027 + Palbociclib = compound: COc1cccc2cc(-c3nc([C@H]4CC[C@H](C(=O)O)CC4)n4ncnc(N)c34)[nH]c12 [OSI-027] + CC(=O)c1c(C)c2cnc(Nc3ccc(N4CCNCC4)cn3)nc2n(C2CCCC2)c1=O [Palbociclib] (partner 0.5 µM)
In short: as §1

| Cell Line | relative viability (Vemurafenib + Phenformin; first compound 0.03162 µM) | relative viability (Vemurafenib + Phenformin; first compound 0.1 µM) | relative viability (Vemurafenib + Phenformin; first compound 0.3162 µM) | relative viability (Vemurafenib + Phenformin; first compound 1 µM) | relative viability (Vemurafenib + Pemetrexed; first compound 0.1 µM) | relative viability (Vemurafenib + Pemetrexed; first compound 0.3162 µM) | relative viability (Vemurafenib + Pemetrexed; first compound 1 µM) | relative viability (Vemurafenib + Tozasertib; first compound 0.03162 µM) | relative viability (Vemurafenib + Tozasertib; first compound 0.1 µM) | relative viability (Vemurafenib + Tozasertib; first compound 0.3162 µM) | relative viability (Vemurafenib + Tozasertib; first compound 1 µM) | relative viability (OSI-027 + Palbociclib; first compound 0.01 µM) | relative viability (OSI-027 + Palbociclib; first compound 0.03162 µM) | relative viability (OSI-027 + Palbociclib; first compound 0.1 µM) | relative viability (OSI-027 + Palbociclib; first compound 0.3162 µM) | relative viability (OSI-027 + Palbociclib; first compound 1 µM) | relative viability (Vemurafenib + Pemetrexed; first compound 0.03162 µM) |
| --- | --- | --- | --- | --- | --- | --- | --- | --- | --- | --- | --- | --- | --- | --- | --- | --- | --- |
| LCLC-97TM1 | 0.4 | 0.43 | 0.43 | 0.342 | 0.163 | 0.185 | 0.149 | 0.206 | 0.268 | 0.269 | 0.166 | 0.236 | 0.205 | 0.217 | 0.139 | 0.239 | – |
| NCI-H1915 | 0.354 | 0.348 | 0.255 | 0.332 | 0.494 | 0.434 | 0.454 | 0.436 | 0.439 | 0.411 | 0.342 | 0.535 | 0.523 | 0.429 | 0.388 | 0.268 | 0.493 |
| NCI-H2342 | 0.443 | 0.574 | 0.622 | 0.737 | 0.834 | 0.684 | 0.784 | 0.477 | 0.478 | 0.629 | 0.417 | 0.51 | 0.503 | 0.492 | 0.443 | 0.48 | 0.75 |
| EKVX | 0.223 | – | 0.223 | 0.213 | – | 0.405 | 0.442 | 0.351 | – | 0.383 | 0.326 | 0.332 | 0.44 | 0.34 | 0.263 | 0.22 | 0.379 |
| HCC-78 | 0.656 | 0.618 | 0.817 | 0.727 | 0.922 | 0.932 | 0.921 | 0.405 | 0.316 | 0.507 | 0.468 | 0.484 | 0.452 | 0.483 | 0.45 | 0.411 | 0.925 |
| A549 | 0.163 | 0.154 | – | 0.146 | – | – | – | – | – | – | – | – | – | – | – | – | – |
| NCI-H2126 | 0.513 | 0.485 | – | 0.533 | 0.662 | 0.684 | 0.777 | 0.812 | 0.786 | – | 0.809 | 0.362 | 0.361 | 0.36 | 0.34 | 0.347 | 0.627 |
| HCC-827 | 0.377 | – | 0.425 | 0.404 | – | 0.287 | 0.238 | 0.397 | – | 0.42 | 0.41 | 0.507 | 0.414 | 0.507 | 0.299 | 0.207 | 0.273 |
| NCI-H1650 | – | 0.353 | – | 0.376 | 0.316 | 0.343 | 0.351 | – | 0.277 | – | 0.272 | 0.361 | 0.344 | 0.278 | 0.357 | 0.286 | 0.343 |
| LK-2 | 0.396 | 0.609 | 0.398 | 0.185 | 0.274 | 0.26 | 0.304 | 0.158 | 0.177 | 0.187 | 0.155 | 0.578 | – | 0.483 | 0.403 | 0.163 | 0.247 |
| PC-14 | 0.456 | – | 0.218 | 0.652 | – | 0.126 | 0.134 | 0.557 | – | 0.376 | 0.551 | 0.512 | 0.509 | 0.545 | 0.576 | 0.408 | 0.147 |
| NCI-H1355 | 0.424 | 0.426 | 0.36 | 0.487 | 0.961 | 1.02 | 1.04 | 0.545 | 0.559 | 0.56 | 0.435 | 0.4 | 0.392 | 0.317 | 0.264 | 0.257 | 1.03 |
| LXF-289 | 0.456 | 0.457 | 0.435 | 0.551 | 0.868 | 0.903 | 0.635 | 0.195 | 0.172 | 0.149 | 0.169 | 0.605 | 0.677 | 0.66 | 0.599 | 0.345 | 0.871 |
| LOU-NH91 | 0.644 | – | – | 0.731 | 0.464 | 0.337 | 0.382 | 0.599 | – | – | 0.705 | 0.556 | 0.563 | 0.503 | 0.567 | 0.529 | 0.372 |
| NCI-H2170 | 0.396 | 0.354 | 0.376 | 0.454 | – | 0.265 | 0.289 | 0.637 | 0.617 | 0.751 | 0.679 | 0.407 | 0.382 | 0.329 | 0.302 | 0.201 | 0.272 |
| NCI-H2405 | 0.382 | 0.374 | – | 0.368 | 0.977 | – | 1.17 | 0.756 | 0.708 | – | 0.717 | 0.509 | 0.491 | 0.472 | 0.401 | 0.34 | 1.02 |
| SK-MES-1 | 0.624 | 0.695 | 0.622 | 0.706 | – | 0.858 | 0.92 | 0.831 | 0.915 | 0.829 | 0.751 | 0.294 | 0.322 | 0.286 | 0.275 | 0.274 | 0.891 |
| LCLC-103H | 0.312 | 0.342 | 0.262 | 0.307 | 0.515 | 0.377 | 0.456 | 0.476 | 0.395 | 0.493 | 0.487 | 0.484 | 0.538 | 0.513 | 0.498 | 0.493 | 0.495 |
| NCI-H322M | 0.714 | – | – | 0.724 | – | 0.597 | 0.537 | 0.426 | – | – | 0.446 | 0.489 | 0.436 | 0.478 | 0.438 | 0.483 | 0.587 |
| NCI-H23 | 0.702 | 0.797 | 0.728 | 0.723 | 0.772 | 0.622 | 0.727 | 0.309 | 0.352 | 0.345 | 0.278 | 0.439 | 0.552 | 0.414 | 0.25 | 0.237 | 0.564 |
| NCI-H1563 | 0.632 | 0.705 | 0.66 | 0.672 | 0.627 | 0.681 | 0.65 | – | – | – | – | – | – | – | – | – | 0.708 |
| NCI-H1623 | 0.565 | – | 0.623 | 0.569 | – | – | – | 0.409 | – | 0.452 | 0.41 | – | – | – | – | – | – |
| NCI-H1792 | 0.228 | 0.236 | 0.115 | 0.336 | 0.787 | – | 0.747 | – | – | – | – | 0.578 | 0.451 | 0.623 | 0.604 | 0.308 | 0.59 |
